Experimental data: ChEMBL document CHEMBL1201862, “PubChem BioAssay data set” (2004)
Active and inactive are the calls of the source.

Tests used:
Coagulation factor XII = target: T1, Coagulation factor XII (Homo sapiens, UniProt P00748); format: functional;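 note: activated factor XIIa alpha cleaving a fluorogenic AMC peptide substrate; inhibitor potency from loss of enzyme activity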
T1 sequence (P00748 whole entry): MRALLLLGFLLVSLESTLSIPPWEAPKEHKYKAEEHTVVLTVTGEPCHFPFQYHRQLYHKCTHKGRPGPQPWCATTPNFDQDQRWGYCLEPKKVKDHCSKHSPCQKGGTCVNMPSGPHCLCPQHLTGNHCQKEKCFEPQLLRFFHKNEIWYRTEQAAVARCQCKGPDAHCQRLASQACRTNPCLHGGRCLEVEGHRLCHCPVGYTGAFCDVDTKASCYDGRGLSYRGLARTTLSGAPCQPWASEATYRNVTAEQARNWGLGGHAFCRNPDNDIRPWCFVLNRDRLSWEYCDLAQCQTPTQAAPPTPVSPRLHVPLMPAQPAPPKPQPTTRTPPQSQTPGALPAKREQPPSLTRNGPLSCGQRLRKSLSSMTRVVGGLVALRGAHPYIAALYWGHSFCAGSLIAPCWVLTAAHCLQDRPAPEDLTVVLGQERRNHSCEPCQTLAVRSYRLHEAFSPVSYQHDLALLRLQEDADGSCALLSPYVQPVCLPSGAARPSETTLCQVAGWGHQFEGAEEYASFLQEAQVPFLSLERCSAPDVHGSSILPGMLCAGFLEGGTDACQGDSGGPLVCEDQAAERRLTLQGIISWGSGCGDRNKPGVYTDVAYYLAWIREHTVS

HeLa = assay: viability loss in HeLa cells – cell-based, ATP luminescence, cherry-pick samples, cytotoxicity control, dose response (AID 687004); format: functional; conditions: Homo sapiens
Galanin receptor type 3 = Galanin receptor type 3 (Homo sapiens, UniProt O60755); assay: Fluorescence-based cell-based primary high throughput dose response assay to identify antagonists of the Galanin Receptor 3 (GalR3).; format: functional
cells [1] = format: functional, cell-based; conditions: HEK-CNG
[2] = target: T2, COUP transcription factor 2 (Homo sapiens, UniProt P24468); assay: Luminescence-based cell-based high throughput dose response assay to identify inhibitors of COUP-TFII (NR2F2).; format: functional;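 note: HEK293 cells transiently cotransfected with COUP-TFII expression vector and reporter; luciferase reporter luminescence driven by COUP-TFII from the pX2-168 reporter plasmid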
T2 sequence (P24468 whole entry): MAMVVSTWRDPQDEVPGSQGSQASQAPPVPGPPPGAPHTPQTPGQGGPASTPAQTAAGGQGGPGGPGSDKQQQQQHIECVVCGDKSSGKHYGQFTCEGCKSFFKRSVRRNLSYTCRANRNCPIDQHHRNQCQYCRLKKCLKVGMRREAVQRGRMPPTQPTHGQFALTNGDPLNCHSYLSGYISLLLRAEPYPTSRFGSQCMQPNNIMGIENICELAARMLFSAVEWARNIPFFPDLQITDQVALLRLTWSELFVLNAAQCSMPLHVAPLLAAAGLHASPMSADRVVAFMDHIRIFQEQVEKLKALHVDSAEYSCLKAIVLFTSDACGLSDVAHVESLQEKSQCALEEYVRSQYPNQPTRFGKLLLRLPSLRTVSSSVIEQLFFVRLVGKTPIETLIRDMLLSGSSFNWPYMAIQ

cells [3] = format: functional, cell-based
cells [4] = format: functional, cell-based; remark: listed apart in the source
A-375 [5] = assay: MITF: Counter assay: A375 proliferation Measured in Cell-Based System Using Plate Reader - 2084-03_Inhibitor_Dose_DryPowder_Activity. [Related pubchem assays (depositor defined):AID488944]; format: functional; conditions: Homo sapiens
A-375 [6] = assay: proliferation inhibition in MITF-low A375 cells – cell-based, cherry-pick samples, set 2, counter-screen for MITF modulator project, dose response (AID 540335); format: functional; conditions: Homo sapiens
[7] = target: Fructose-bisphosphate aldolase (Mycobacterium tuberculosis, UniProt P9WQA3); assay: Fluorescence-based biochemical high throughput dose response assay for inhibitors of the fructose-bisphosphate aldolase (FBA) of M. tuberculosis.; format: functional
[8] = target: Histone-lysine N-methyltransferase NSD2 (Homo sapiens, UniProt O96028); format: biochemical
[9] = Luminescence Cell-Based Dose Retest to Confirm Inhibitors of Cancer Stem Cells. [Related pubchem assays (depositor defined):AID2717, AID2721]; format: functional; conditions: Homo sapiens
[10] = target: Beta-2 adrenergic receptor (Homo sapiens, UniProt P07550); assay: ADRB2 activation measured by internalization – cell-based, FAP fluorogen, flow cytometry, cherry pick 1, dose response (AID 588763); format: functional
[11] = viability loss in HEK293T cells – cell-based, cherry-picks, cytotoxicity control for HIV Vif inhibitor project, dose response (AID 652208); format: functional
[12] = A549 cell cytotoxicity, dose response, cytotoxicity control, plate reader, cherry-pick, antagonist series (AID 743412); format: functional, cell-based
[13] = toxicity toward HepG2 liver cells – cell-based, plate reader, cherry-pick, antagonist series, cytotoxicity control, dose response (AID 743416); format: functional
[14] = blockers of bursicon-stimulated LGR2 cAMP reporter – cell-based, HEK293, CRE-luciferase reporter, cherry pick, set 2, dose response (AID 743343); format: functional;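 note: transfected cells were stimulated with diluted bursicon conditioned medium after compound addition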
[15] = blockade of melanocortin 4 receptor signaling – cell-based, plate reader, cherry pick, counter-screen for LGR2 antagonist project, dose response (AID 743444); format: functional;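 note: transfected HEK 293 cells stimulated with alpha-MSH peptide; potency of inhibitors of the alpha-MSH evoked signal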
[16] = viability loss in HEK293 cells – cell-based, plate reader, cherry-picked samples, cytotoxicity control, dose response (AID 743446); format: functional

Chain of Fructose-bisphosphate aldolase (P9WQA3 whole entry): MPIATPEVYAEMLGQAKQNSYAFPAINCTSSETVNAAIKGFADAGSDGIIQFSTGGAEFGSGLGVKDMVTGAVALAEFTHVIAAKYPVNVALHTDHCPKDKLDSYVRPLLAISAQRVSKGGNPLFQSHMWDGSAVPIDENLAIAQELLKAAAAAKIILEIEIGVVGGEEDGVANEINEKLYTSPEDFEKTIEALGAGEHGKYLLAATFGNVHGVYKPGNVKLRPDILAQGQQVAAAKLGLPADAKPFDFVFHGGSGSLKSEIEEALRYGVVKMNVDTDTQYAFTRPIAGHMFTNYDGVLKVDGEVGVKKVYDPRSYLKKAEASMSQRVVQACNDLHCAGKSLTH
Chain of Histone-lysine N-methyltransferase NSD2 (O96028 whole entry): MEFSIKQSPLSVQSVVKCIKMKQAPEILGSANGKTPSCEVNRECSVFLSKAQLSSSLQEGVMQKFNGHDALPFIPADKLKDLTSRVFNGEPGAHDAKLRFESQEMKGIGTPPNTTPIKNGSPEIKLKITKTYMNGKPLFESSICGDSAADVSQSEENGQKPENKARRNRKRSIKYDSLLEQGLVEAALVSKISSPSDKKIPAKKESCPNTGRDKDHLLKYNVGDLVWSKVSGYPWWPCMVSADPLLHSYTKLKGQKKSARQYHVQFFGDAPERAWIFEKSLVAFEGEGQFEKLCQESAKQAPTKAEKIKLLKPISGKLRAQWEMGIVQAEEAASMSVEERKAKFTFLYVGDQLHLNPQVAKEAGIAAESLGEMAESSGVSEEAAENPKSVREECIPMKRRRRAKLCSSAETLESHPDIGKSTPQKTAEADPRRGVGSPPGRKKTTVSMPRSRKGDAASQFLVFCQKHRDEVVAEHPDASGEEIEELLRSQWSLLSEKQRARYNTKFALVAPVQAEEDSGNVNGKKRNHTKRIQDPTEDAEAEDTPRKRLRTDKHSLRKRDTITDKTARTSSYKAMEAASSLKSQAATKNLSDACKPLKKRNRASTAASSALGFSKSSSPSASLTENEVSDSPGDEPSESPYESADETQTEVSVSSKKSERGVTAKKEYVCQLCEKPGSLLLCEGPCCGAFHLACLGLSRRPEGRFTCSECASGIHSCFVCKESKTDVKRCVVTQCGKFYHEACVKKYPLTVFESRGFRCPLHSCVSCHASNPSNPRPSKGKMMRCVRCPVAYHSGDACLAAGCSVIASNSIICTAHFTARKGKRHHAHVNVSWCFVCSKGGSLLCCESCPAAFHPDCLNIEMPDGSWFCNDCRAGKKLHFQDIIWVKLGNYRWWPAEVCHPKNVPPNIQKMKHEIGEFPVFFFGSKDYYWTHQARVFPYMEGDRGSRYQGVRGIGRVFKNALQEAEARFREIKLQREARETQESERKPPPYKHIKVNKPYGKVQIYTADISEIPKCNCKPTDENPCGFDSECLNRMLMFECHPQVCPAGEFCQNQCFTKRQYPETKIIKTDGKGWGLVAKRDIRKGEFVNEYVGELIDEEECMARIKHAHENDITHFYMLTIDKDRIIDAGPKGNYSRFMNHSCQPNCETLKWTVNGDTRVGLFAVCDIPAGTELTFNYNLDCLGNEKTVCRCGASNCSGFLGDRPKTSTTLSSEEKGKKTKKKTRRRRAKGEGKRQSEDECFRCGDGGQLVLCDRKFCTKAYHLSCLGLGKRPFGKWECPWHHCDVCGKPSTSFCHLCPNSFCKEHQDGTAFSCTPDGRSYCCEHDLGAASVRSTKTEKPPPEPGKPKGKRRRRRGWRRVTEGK
Chain of Galanin receptor type 3 (O60755 whole entry): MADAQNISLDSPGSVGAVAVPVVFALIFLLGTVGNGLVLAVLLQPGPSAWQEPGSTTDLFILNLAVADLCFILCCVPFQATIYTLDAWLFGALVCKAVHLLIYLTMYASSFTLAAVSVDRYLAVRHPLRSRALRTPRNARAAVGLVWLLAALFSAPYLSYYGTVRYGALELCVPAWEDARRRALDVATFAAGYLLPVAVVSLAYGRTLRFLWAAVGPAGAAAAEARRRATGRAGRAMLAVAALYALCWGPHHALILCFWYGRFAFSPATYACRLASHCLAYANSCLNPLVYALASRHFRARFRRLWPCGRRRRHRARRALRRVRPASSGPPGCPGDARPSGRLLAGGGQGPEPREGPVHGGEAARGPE
Chain of Beta-2 adrenergic receptor (P07550 whole entry): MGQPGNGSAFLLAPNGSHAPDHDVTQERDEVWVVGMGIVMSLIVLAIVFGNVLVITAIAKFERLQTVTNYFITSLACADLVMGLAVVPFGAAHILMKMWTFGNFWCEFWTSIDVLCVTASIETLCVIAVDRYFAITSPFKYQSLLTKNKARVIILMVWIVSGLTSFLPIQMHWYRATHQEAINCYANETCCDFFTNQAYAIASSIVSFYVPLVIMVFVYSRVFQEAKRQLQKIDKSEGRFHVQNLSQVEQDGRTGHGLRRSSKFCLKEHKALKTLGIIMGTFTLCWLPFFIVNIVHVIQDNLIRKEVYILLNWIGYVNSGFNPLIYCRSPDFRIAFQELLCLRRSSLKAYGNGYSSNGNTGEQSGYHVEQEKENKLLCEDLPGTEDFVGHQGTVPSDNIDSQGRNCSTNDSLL

Q: What does the source list for Cc1ccc(CSc2ncnc3c2cnn3-c2ccc(C)cc2)cc1?
A: IC50 (Coagulation factor XII): > 50 µM (inactive); AC50 (HeLa): 48.5 µM (active)

Q: What does the source list for Cc1c(Cl)cccc1NC(=O)N1CCCN(c2nc(-c3ccccc3)ns2)CC1?
A: IC50 (Galanin receptor type 3): 1.53 µM (active); EC50 (cells [1]): > 29.9 µM (inactive); IC50 [2]: 13.4 µM (inactive)

Q: For Cc1ccc(Nc2nnc(-c3ccccc3N)o2)cc1C, which EC50 (cells [3]) is on record?
A: Its EC50 is > 350 µM (not active).

Q: What about the EC50 (cells [4]) of the same compound?
A: Its EC50 is 7.3 µM (active).

Q: And the AC50 (A-375 [5])?
A: Its AC50 is > 35 µM (active).

Q: And the AC50 (A-375 [6])?
A: Its AC50 is > 35 µM (active).

Q: What about the IC50 [7] of the same compound?
A: The IC50 was 1.45 µM (active).

Q: Which AC50 [8] does the source give for COc1cc(/C=C2\C(=N)N3N=C(S(C)(=O)=O)SC3=NC2=O)ccc1OC(=O)c1cccs1 here?
A: Its AC50 is > 20 µM (inactive).

Q: For Cn1nnnc1Sc1ncnc2scc(-c3ccc(Cl)cc3)c12, which AC50 [9] is on record?
A: Its AC50 is 3.48 µM (active).

Q: And the EC50 [10]?
A: The EC50 was 8.38 µM (active).

Q: What about the AC50 [11] of the same compound?
A: The AC50 was 11.8 µM (active).

Q: What about the AC50 [12] of the same compound?
A: The AC50 was 7.88 µM (active).

Q: What about the AC50 [13] of the same compound?
A: Its AC50 is 12.1 µM (active).

Q: And the AC50 [14]?
A: The AC50 was 14.3 µM (active).

Q: And the AC50 [15]?
A: Its AC50 is 23.2 µM (active).

Q: What about the AC50 [16] of the same compound?
A: Its AC50 is 13.9 µM (active).
